Molecular target: T1, mouse TRPM3a2 (mTRPM3) ion channel (Mus musculus, UniProt J9SQF3)
T1 construct: expressed in transfected cells; host or cells: flip-in HEK293
Test: TRPM3 ion channel driven Ca2+ uptake, Fluo-4 AM assay (PS-stimulated, overexpressing flip-in HEK293 cells)
Assay type: cell-based
Protocol: In order to monitor the inhibition of the mouse TRPM3a2 (mTRPM3) ion channel by the compounds of the invention, a cellular system making use of an mTRPM3alpha2 or hTRPM3 overexpressing cell line (flip-in HEK293) was used. The TRPM3 channel was stimulated/opened with Pregnenolone sulfate (PS) (50 μM) which results in Ca^2+ influx.
For mTRPM3, the intracellular Ca^2+ was measured with a Calcium responsive dye, Fluor-4 AM ester (Invitrogen). Cells were cultured until a confluence of 80-90%, washed with Versene (Invitrogen) and detached from the surface by a short incubation with 0.05% Trypsin (Invitrogen). The trypsination process was stopped by the addition of complete cell culture medium (DMEM, glutamax, 10% FCS, NEAA, Pen-Strep). Cells were collected and resuspended in Krebs buffer without Calcium at RT.
Prior the cell seeding (±2000 cells/well into a black, 384 well plate (Greiner)) the diluted compound was added in the assay plate, together with the PS dissolved in Krebs buffer containing Calcium. […] Directly after cell addition the plates were read on an Envision fluorescence reader (Perkin Elmer) by an Excitation of 485 nm and emission at 535 nm.
Channel inhibition was calculated compared to a non-PS stimulated control versus a condition stimulated with PS (50 μM) with vehicle. The ability of the compounds of the invention to inhibit this activity was determined as: Percentage inhibition=[1-((RFU determined for sample with test compound present—RFU determined for sample with positive control inhibitor) divided by (RFU determined in the presence of vehicle—RFU determined for sample with positive control inhibitor))]*100.

[1] = PS (50 μM) stimulated, cpds. 400-499
[2] = PS (50 μM) stimulated, cpd 001-199
[3] = PS (50 μM) stimulated, cpds. 600-666
[4] = PS (50 μM) stimulated Ca2+ influx, HEK293, cpds 300-399
[5] = PS (50 μM) stimulated, cpds. 500-599
[6] = PS (50 μM) stimulated, cpds. 667-751

T1 sequence (J9SQF3 1-1709 isoform J9SQF3-12): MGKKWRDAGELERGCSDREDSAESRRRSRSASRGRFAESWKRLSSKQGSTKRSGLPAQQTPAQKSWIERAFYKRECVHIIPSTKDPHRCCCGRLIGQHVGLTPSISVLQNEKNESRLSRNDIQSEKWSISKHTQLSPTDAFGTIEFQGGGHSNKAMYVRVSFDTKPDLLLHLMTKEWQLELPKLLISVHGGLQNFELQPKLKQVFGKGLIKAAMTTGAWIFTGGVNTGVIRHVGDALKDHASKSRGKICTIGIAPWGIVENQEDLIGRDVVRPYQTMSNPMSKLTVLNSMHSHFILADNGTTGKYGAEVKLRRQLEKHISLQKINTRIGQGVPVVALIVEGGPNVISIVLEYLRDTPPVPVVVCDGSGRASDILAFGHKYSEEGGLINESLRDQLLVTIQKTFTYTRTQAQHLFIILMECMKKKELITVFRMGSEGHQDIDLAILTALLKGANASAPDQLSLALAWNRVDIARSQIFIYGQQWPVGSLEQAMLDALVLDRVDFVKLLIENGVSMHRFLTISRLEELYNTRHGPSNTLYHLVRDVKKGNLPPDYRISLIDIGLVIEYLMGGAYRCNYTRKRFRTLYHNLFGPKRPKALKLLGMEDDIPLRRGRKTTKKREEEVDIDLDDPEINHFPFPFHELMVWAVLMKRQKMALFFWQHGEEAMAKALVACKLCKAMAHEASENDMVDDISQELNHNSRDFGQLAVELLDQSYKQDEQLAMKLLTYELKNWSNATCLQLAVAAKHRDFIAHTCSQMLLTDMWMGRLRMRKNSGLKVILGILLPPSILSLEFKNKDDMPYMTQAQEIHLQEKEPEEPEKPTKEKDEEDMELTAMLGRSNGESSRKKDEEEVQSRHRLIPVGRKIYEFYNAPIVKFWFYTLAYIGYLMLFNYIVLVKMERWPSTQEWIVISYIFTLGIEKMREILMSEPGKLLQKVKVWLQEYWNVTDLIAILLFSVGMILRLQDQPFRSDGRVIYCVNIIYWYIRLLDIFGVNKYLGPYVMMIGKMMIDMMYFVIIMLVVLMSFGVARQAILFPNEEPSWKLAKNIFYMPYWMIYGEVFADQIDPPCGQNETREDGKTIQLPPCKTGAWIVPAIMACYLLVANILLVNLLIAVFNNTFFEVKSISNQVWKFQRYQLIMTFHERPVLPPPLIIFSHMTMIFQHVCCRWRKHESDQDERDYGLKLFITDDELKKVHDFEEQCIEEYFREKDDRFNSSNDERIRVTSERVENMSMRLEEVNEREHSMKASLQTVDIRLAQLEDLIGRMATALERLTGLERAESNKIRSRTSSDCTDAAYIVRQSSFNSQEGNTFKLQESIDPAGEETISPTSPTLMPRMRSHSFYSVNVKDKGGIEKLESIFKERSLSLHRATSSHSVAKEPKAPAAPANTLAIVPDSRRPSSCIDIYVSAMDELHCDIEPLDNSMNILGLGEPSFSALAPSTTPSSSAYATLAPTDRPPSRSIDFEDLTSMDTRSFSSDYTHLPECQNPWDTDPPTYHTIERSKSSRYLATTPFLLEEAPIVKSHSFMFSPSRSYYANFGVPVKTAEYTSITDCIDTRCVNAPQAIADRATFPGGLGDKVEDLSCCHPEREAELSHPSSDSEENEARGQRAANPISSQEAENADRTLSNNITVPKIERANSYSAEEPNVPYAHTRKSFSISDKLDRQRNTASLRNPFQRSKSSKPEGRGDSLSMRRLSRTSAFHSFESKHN

With `Cc1nc(C)c(COc2ccc3oc(C)c(C(=O)NC(CO)C(N)=O)c3c2)s1` (single isomer, unassigned) [458 - En 1] the IC50 [1] was ≤ 1000 nM.
`Cc1oc2ccc(OCc3cccc(N(C)C)n3)cc2c1C(=O)NC1CCN(C(=O)OC(C)(C)C)CC1(F)F` (centres unmarked) [cpd 078, tert-butyl 4-(5-((6-(dimethylamino)pyridin-2-yl)methoxy)-2-methylbenzofuran-3-carboxamido)-3,3-difluoropiperidine-1-carboxylate] gave an IC50 [2] of 1000 to 20000 nM.
In the case of `COc1ncccc1COc1ccc2oc(C)c(C(=O)NC3CCNCC3(F)F)c2c1` (centres unmarked) [cpd 062, N-(3,3-difluoropiperidin-4-yl)-5-((2-methoxypyridin-3-yl)methoxy)-2-methylbenzofuran-3-carboxamide], the IC50 [2] is reported as ≤ 1000 nM.
For `Cc1oc2ccc(OCc3ccnn3C)cc2c1C(=O)NC(CO)C(N)=O` (single isomer, unassigned) [452 - En 1], the IC50 [1] was ≤ 1000 nM.
For `Cc1ncc(COc2ccc3oc(C)c(C(=O)NC(CN(C)C4CC4)C(N)=O)c3c2)s1` (single isomer, unassigned) [445 - En 1], the IC50 [1] was ≤ 1000 nM.
In the case of `Cc1ncccc1COc1ccc2oc(C)c(C(=O)NC(C)(CO)C(N)=O)c2c1` (single isomer, unassigned) [461 - En 1], the IC50 [1] is reported as ≤ 1000 nM.
For `Cc1ncsc1COc1cc(Cl)c2oc(C)c(C(=O)NC3(CO)CCOCC3)c2c1` [cpd 187, 7-chloro-N-(4-(hydroxymethyl)tetrahydro-2H-pyran-4-yl)-2-methyl-5-((4-methylthiazol-5-yl)-methoxy)benzofuran-3-carboxamide], the IC50 [2] was 1000 to 20000 nM.
`Cc1ncsc1COc1ccc2oc(C)c(C(=O)NC3CN(CC(F)(F)F)CC3(F)F)c2c1` (single isomer, unassigned) [155 - En 1, N-(4,4-difluoro-1-(2,2,2-trifluoroethyl)pyrrolidin-3-yl)-2-methyl-5-((4-methylthiazol-5-yl)me-thoxy)benzofuran-3-carboxamide] was tested, and the IC50 [2] was ≤ 1000 nM.
For `Cc1oc2ccc(OCc3ccnn3C)cc2c1C(=O)NC1COCC1O` (single isomer, unassigned) [656 - En 1], the IC50 [3] was 1000 to 20000 nM.
`Cc1oc2ccc(OCc3nccn3C)cc2c1C(=O)NC1CCN(CCO)C1=O` (single isomer, unassigned) [403 - En 1] gave an IC50 [1] of 1000 to 20000 nM.
For `Cc1ncc(C(C)Oc2ccc3oc(C)c(C(=O)NC(CO)C(N)=O)c3c2)s1` (single isomer, unassigned) [395 - Dia 1], the IC50 [4] was ≤ 1000 nM.
For `Cc1oc2ccc(OCc3ccccn3)cc2c1C(=O)NC1(C(N)=O)CCOC1` (single isomer, unassigned) [595 - En 1], the IC50 [5] was ≤ 1000 nM.
In the case of `Cc1oc2ccc(OCc3ccnn3CC(F)F)cc2c1C(=O)NC1(C(N)=O)CCOC1` (single isomer, unassigned) [740 - En 1], the IC50 [6] is reported as ≤ 1000 nM.
`Cc1ccncc1COc1ccc2oc(C)c(C(=O)NC3CCNC3=O)c2c1` (centres unmarked) [cpd 037, 2-methyl-5-((4-methylpyridin-3-yl)methoxy)-N-(2-oxopyrrolidin-3-yl)benzofuran-3-carboxamide] showed an IC50 [2] of 1000 to 20000 nM.
In the case of `Cc1nccc(COc2ccc3oc(C)c(C(=O)NC4(CO)CCOCC4)c3c2)n1` [cpd 612, N-(4-(hydroxymethyl)tetrahydro-2H-pyran-4-yl)-2-methyl-5-((2-methylpyrimidin-4-yl)methoxy)benzofuran-3-carboxamide], the IC50 [3] is reported as 1000 to 20000 nM.
With `Cc1oc2ccc(OCc3cccnn3)cc2c1C(=O)O` [cpd 007, 2-methyl-5-(pyridazin-3-ylmethoxy)benzofuran-3-carboxylic acid] the IC50 [2] was 1000 to 20000 nM.
In the case of `Cc1ncsc1COc1ccc2oc(C)c(C(=O)NCC(C(N)=O)N(C)C)c2c1` (centres unmarked) [575 - En 1], the IC50 [5] is reported as ≤ 1000 nM.
In the case of `Cc1oc2ccc(OCc3cccnc3C(F)F)cc2c1C(=O)NC1(CO)CCNC1=O` (single isomer, unassigned) [736 - En 1], the IC50 [6] is reported as ≤ 1000 nM.
In the case of `COCC(NC(=O)c1c(C)oc2ccc(OCc3scnc3C)cc12)C(N)=O` (single isomer, unassigned) [467 - En 1], the IC50 [1] is reported as ≤ 1000 nM.
`Cc1oc2ccc(OCc3cncc(C(F)(F)F)c3)cc2c1C(=O)NC1CCN(C(=O)OC(C)(C)C)CC1(F)F` (centres unmarked) [cpd 095, tert-butyl 3,3-difluoro-4-(2-methyl-5-((5-(trifluoromethyl)pyridin-3-yl)methoxy)benzofuran-3-carboxamido)piperidine-1-carboxylate] showed an IC50 [2] of 1000 to 20000 nM.
With `Cc1ncc(COc2ccc3oc(C)c(C(=O)NC(CN(C)C)C(N)=O)c3c2)s1` (single isomer, unassigned) [449 - En 1] the IC50 [1] was ≤ 1000 nM.
With `Cc1oc2ccc(OCc3ncccn3)cc2c1C(=O)NC1(CO)CCOCC1` [cpd 626, N-(4-(hydroxymethyl)tetrahydro-2H-pyran-4-yl)-2-methyl-5-(pyrimidin-2-ylmethoxy)benzofuran-3-carboxamide] the IC50 [3] was 1000 to 20000 nM.
`Cc1ccc(COc2ccc3oc(C)c(C(=O)NC4CCNC4=O)c3c2)c(C)n1` (centres unmarked) [cpd 044, 5-((2,6-dimethylpyridin-3-yl)methoxy)-2-methyl-N-(2-oxopyrrolidin-3-yl)benzofuran-3-carboxamide] gave an IC50 [2] of 1000 to 20000 nM.
For `Cc1oc2ccc(OCc3nccs3)cc2c1C(=O)NC1CCN(CCO)C1=O` (single isomer, unassigned) [407 - En 1], the IC50 [1] was ≤ 1000 nM.
For `NC(=O)c1oc2ccc(OCc3cccnc3C(F)(F)F)cc2c1C(=O)NC1CCNCC1(F)F` (single isomer, unassigned) [657 - En 1, N3-(3,3-difluoropiperidin-4-yl)-5-((2-(trifluoromethyl)pyridin-3-yl)methoxy)benzofuran-2,3-dicarboxamide], the IC50 [3] was ≥ 20000 nM.
`Cc1oc2ccc(OCc3cnn(C)c3)cc2c1C(=O)O` [cpd 010, 2-methyl-5-((1-methyl-1H-pyrazol-4-yl)methoxy)benzofuran-3-carboxylic acid] gave an IC50 [2] of 1000 to 20000 nM.
With `Cc1oc2c(Cl)cc(OCc3cccnc3C(F)(F)F)cc2c1C(=O)NC1CCNCC1(F)F` (single isomer, unassigned) [184 - En 2] the IC50 [2] was ≥ 20000 nM.
For `Cc1ncccc1COc1ccc2oc(C)c(C(=O)NC3(C(N)=O)CCOC3)c2c1` (single isomer, unassigned) [591 - En 1], the IC50 [5] was ≤ 1000 nM.
`Cc1oc2ccc(OCc3cccc(C(F)(F)F)n3)cc2c1C(=O)NC1CCNC1=O` (centres unmarked) [cpd 065, 2-methyl-N-(2-oxopyrrolidin-3-yl)-5-((6-(trifluoromethyl)pyridin-2-yl)methoxy)benzofuran-3-carboxamide] showed an IC50 [2] of 1000 to 20000 nM.
`Cc1csc(COc2ccc3oc(C)c(C(=O)NC4(CO)CCOCC4)c3c2)n1` [cpd 617, N-(4-(hydroxymethyl)tetrahydro-2H-pyran-4-yl)-2-methyl-5-((4-methylthiazol-2-yl)methoxy)benzofuran-3-carboxamide] was tested, and the IC50 [3] was 1000 to 20000 nM.
In the case of `Cc1ncc(COc2ccc3oc(C)c(C(=O)NC4(C(N)=O)CCOC4)c3c2)o1` (single isomer, unassigned) [725 - En 1], the IC50 [6] is reported as ≤ 1000 nM.
In the case of `Cc1oc2cc(Cl)c(OCc3cccnc3C(F)(F)F)cc2c1C(=O)NC1CCNCC1(F)F` (single isomer, unassigned) [165 - En 1], the IC50 [2] is reported as ≤ 1000 nM.
In the case of `COc1ncccc1COc1ccc2oc(C)c(C(=O)NC(C)(CO)C(N)=O)c2c1` (single isomer, unassigned) [720 - En 1], the IC50 [6] is reported as ≤ 1000 nM.
For `Cc1ncsc1COc1cc(F)c2oc(C)c(C(=O)NC3(CO)CC3)c2c1` [cpd 366, 7-fluoro-N-(1-(hydroxymethyl)cyclopropyl)-2-methyl-5-((4-methylthiazol-5-yl)methoxy)benzofuran-3-carboxamide], the IC50 [4] was 1000 to 20000 nM.
`Cc1oc2ccc(OCc3cccnc3O)cc2c1C(=O)NC1CNCC1(F)F` (single isomer, unassigned) [640 - En 1] was tested, and the IC50 [3] was ≤ 1000 nM.
